For the experiment, the target named is T1, Recombinant Human EphA2 Fc Protein (Homo sapiens, UniProt P29317).
T1 construct: purchased Elabscience
Nature of the experiment: SPR interaction analysis (Biacore T200), kinetics of peptides against EphA2. Type of experiment: binding. The conditions noted are these: Recombinant Human EphA2 Fc Protein captured by Human Antibody Capture kit; single-cycle kinetics; 25° C.; HBS-P+ buffer with 1% DMSO. The method, boiled down: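 KD derived from ka and kd, fitted on baseline-subtracted sensorgrams from single-cycle kinetics of five peptide dilutions. Running buffer: HBS-P+ (pH 7.4) plus 1% DMSO, 25° C, Biacore T200. Recombinant human EphA2-Fc held on an antibody capture surface.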

Numbered stars: 1 amine (or outer) side, 2 acyl side, 3 side chain; on linkers, the order of the positions; unused ones are H or OH. Bridge positions count the residues as written; N and C are the ends. Square brackets hold non-standard residues; d marks the D form. Side chains are listed from the residue outwards. Peptide text beside a SMILES is read from it. * marks the point of attachment. NH(1-deoxy-D-glucityl) = OC[C@@H](O)[C@@H](O)[C@H](O)[C@@H](O)CN*; Trp(1-Me,7-Cl) = Cn1cc(C[C@H](N)C(=O)O)c2cccc(Cl)c21; Ala(2-NH2-4-pyridyl) = Nc1cc(C[C@H](N)C(=O)O)ccn1; dPhe(3-CONH2) = NC(=O)c1cccc(C[C@@H](N)C(=O)O)c1; X3 = CN([C@@H](Cc1ccnc(N)c1)C(=O)[*:2])[*:1]; Piperazinyl(4-CH2COOH) = O=C(O)CN1CCN(*)CC1; Trp(1-Me) = Cn1cc(C[C@H](N)C(=O)O)c2ccccc21; NMemTyr = CN[C@@H](Cc1cccc(O)c1)C(=O)O; NMehCit = CN[C@@H](CCCCNC(N)=O)C(=O)O; NMe3Pal = CN[C@@H](Cc1cccnc1)C(=O)O; NMeF = CN[C@@H](Cc1ccccc1)C(=O)O; hCit = NC(=O)NCCCC[C@H](N)C(=O)O; Gly(cBu) = N[C@H](C(=O)O)C1CCC1; NMeE = CN[C@@H](CCC(=O)O)C(=O)O; Aad = N[C@@H](CCCC(=O)O)C(=O)O; Pen = CC(C)(S)[C@H](N)C(=O)O; CO = O=C([*:1])[*:2]

What is called Kd is the constant that tells how readily two partners part at equilibrium. As for `CC(C)C[C@@H]1NC(=O)[C@H](Cc2ccnc(N)c2)NC(=O)[C@H](Cc2ccccc2)NC(=O)CSC[C@@H](C(N)=O)NC(=O)[C@H](Cc2cn(C)c3ccccc23)NC(=O)[C@H](Cc2ccccc2)N(C)C(=O)[C@H](Cc2cn(C)c3ccccc23)NC(=O)[C@H](CCCCNC(N)=O)N(C)C1=O` [PDC_EphA2-00026481, F-4Py2NH2-L-MeHcit-W1Me-MeF-W1Me-C-NH2] ({CH2CO}-F[Ala(2-NH2-4-pyridyl)]L[NMehCit][Trp(1-Me)][NMeF][Trp(1-Me)]C-NH2; thioether N-8), the Kd was in the range of 100 to 400 nM. As to `CC(C)C[C@@H]1NC(=O)[C@H](CC(N)=O)NC(=O)[C@H](Cc2cccnc2)N(C)C(=O)[C@@H](Cc2cccc(C(N)=O)c2)NC(=O)CSC[C@@H](C(N)=O)NC(=O)[C@H](Cc2cn(C)c3ccccc23)NC(=O)[C@H](CCCCNC(N)=O)NC(=O)[C@H](Cc2cn(C)c3c(Cl)cccc23)NC(=O)[C@H](Cc2ccccc2)N(C)C(=O)[C@H](CO)NC1=O` [PDC_EphA2-00026600, df3CON-Me3Py-N-L-S-MeF-W1Me7Cl-Hcit-W1Me-C-NH2] ({CH2CO}-[dPhe(3-CONH2)][NMe3Pal]NLS[NMeF][Trp(1-Me,7-Cl)][hCit][Trp(1-Me)]C-NH2; thioether N-10), the Kd lay within 1 to 10 nM.

Regarding `CC(C)C[C@@H]1NC(=O)[C@H](CC(N)=O)NC(=O)[C@H](Cc2cccnc2)N(C)C(=O)[C@@H](Cc2cccc(C(N)=O)c2)NC(=O)CSC[C@@H](C(N)=O)NC(=O)[C@H](Cc2cn(C)c3ccccc23)NC(=O)[C@H](CCCCNC(N)=O)NC(=O)[C@H](Cc2cn(C)c3c(Cl)cccc23)NC(=O)[C@H](Cc2cccnc2)N(C)C(=O)[C@H](CO)NC1=O` [PDC_EphA2-00026601, df3CON-Me3Py-N-L-S-Me3Py-W1Me7Cl-Hcit-W1Me-C-NH2] ({CH2CO}-[dPhe(3-CONH2)][NMe3Pal]NLS[NMe3Pal][Trp(1-Me,7-Cl)][hCit][Trp(1-Me)]C-NH2; thioether N-10), the Kd fell in the range of 1 to 10 nM.

In the case of `CN1C(=O)[C@H](CO)NC(=O)[C@H](C2CCC2)NC(=O)[C@H](CC(N)=O)NC(=O)[C@H](Cc2cccnc2)N(C)C(=O)[C@@H](Cc2cccc(C(N)=O)c2)NC(=O)CSC[C@@H](C(N)=O)NC(=O)[C@H](Cc2cn(C)c3ccccc23)NC(=O)[C@H](CCCCNC(N)=O)NC(=O)[C@H](Cc2cn(C)c3c(Cl)cccc23)NC(=O)[C@@H]1Cc1cccnc1` [PDC_EphA2-00026602, df3CON-Me3Py-N-Cbg-S-Me3Py-W1Me7Cl-Hcit-W1Me-C-NH2] ({CH2CO}-[dPhe(3-CONH2)][NMe3Pal]N[Gly(cBu)]S[NMe3Pal][Trp(1-Me,7-Cl)][hCit][Trp(1-Me)]C-NH2; thioether N-10), the Kd was below 1 nM. Take `CN1C(=O)[C@H](CCC(=O)NC[C@H](O)[C@@H](O)[C@H](O)[C@H](O)CO)NC(=O)[C@H](C2CCC2)NC(=O)[C@H](CC(N)=O)NC(=O)[C@H](Cc2cccnc2)N(C)C(=O)[C@@H](Cc2cccc(C(N)=O)c2)NC(=O)CSC[C@@H](C(N)=O)NC(=O)[C@H](Cc2cn(C)c3ccccc23)NC(=O)[C@H](CCCCNC(=O)N2CCN(CC(=O)O)CC2)NC(=O)[C@H](Cc2cn(C)c3c(Cl)cccc23)NC(=O)[C@@H]1Cc1cccnc1` [PDC_EphA2-00026603, df3CON-Me3Py-N-Cbg-Qglucamine-Me3Py-W1Me7Cl-KCOpipzaa-W1Me-C-NH2] ({CH2CO}-[dPhe(3-CONH2)][NMe3Pal]N[Gly(cBu)]E(NH(1-deoxy-D-glucityl))[NMe3Pal][Trp(1-Me,7-Cl)]K([CO-Piperazinyl(4-CH2COOH)])[Trp(1-Me)]C-NH2; thioether N-10): the Kd was below 1 nM. On to `CN1C(=O)[C@H](CCC(=O)NC[C@H](O)[C@@H](O)[C@H](O)[C@H](O)CO)NC(=O)[C@H](C2CCC2)NC(=O)[C@H](CC(N)=O)NC(=O)[C@H](Cc2cccnc2)N(C)C(=O)[C@@H](Cc2cccc(C(N)=O)c2)NC(=O)CSC[C@@H](C(N)=O)NC(=O)[C@H](Cc2cn(C)c3ccccc23)NC(=O)[C@H](CCC(=O)NC[C@H](O)[C@@H](O)[C@H](O)[C@H](O)CO)NC(=O)[C@H](Cc2cn(C)c3c(Cl)cccc23)NC(=O)[C@@H]1Cc1cccnc1` [PDC_EphA2-00026604, df3CON-Me3Py-N-Cbg-Qglucamine-Me3Py-W1Me7Cl-Qglucamine-W1Me-C-NH2] ({CH2CO}-[dPhe(3-CONH2)][NMe3Pal]N[Gly(cBu)]E(NH(1-deoxy-D-glucityl))[NMe3Pal][Trp(1-Me,7-Cl)]E(NH(1-deoxy-D-glucityl))[Trp(1-Me)]C-NH2; thioether N-10), for which the Kd was below 1 nM. Take `CN1C(=O)[C@H](CCC(=O)NC[C@H](O)[C@@H](O)[C@H](O)[C@H](O)CO)NC(=O)[C@H](C2CCC2)NC(=O)[C@H](CC(N)=O)NC(=O)[C@H](Cc2ccnc(N)c2)N(C)C(=O)[C@@H](Cc2cccc(C(N)=O)c2)NC(=O)CSC[C@@H](C(N)=O)NC(=O)[C@H](Cc2cn(C)c3ccccc23)NC(=O)[C@H](CCCCNC(=O)N2CCN(CC(=O)O)CC2)NC(=O)[C@H](Cc2cn(C)c3c(Cl)cccc23)NC(=O)[C@@H]1Cc1cccnc1` [PDC_EphA2-00026605, df3CON-Me4Py2NH2-N-Cbg-Qglucamine-Me3Py-W1Me7Cl-KCOpipzaa-W1Me-C-NH2] ({CH2CO}-[dPhe(3-CONH2)][X3]N[Gly(cBu)]E(NH(1-deoxy-D-glucityl))[NMe3Pal][Trp(1-Me,7-Cl)]K([CO-Piperazinyl(4-CH2COOH)])[Trp(1-Me)]C-NH2; thioether N-10): the Kd is 1 to 10 nM.

Take `CN1C(=O)[C@H](CCCC(N)=O)NC(=O)[C@H](C2CCC2)NC(=O)[C@H](CC(N)=O)NC(=O)[C@H](Cc2cccnc2)N(C)C(=O)[C@@H](Cc2cccc(C(N)=O)c2)NC(=O)CSC[C@@H](C(N)=O)NC(=O)[C@H](Cc2cn(C)c3ccccc23)NC(=O)[C@H](CCCCNC(=O)N2CCN(CC(=O)O)CC2)NC(=O)[C@H](Cc2cn(C)c3c(Cl)cccc23)NC(=O)[C@@H]1CCC(=O)O` [PDC_EphA2-00026606, df3CON-Me3Py-N-Cbg-Hgn-MeE-W1Me7Cl-KCOpipzaa-W1Me-C-NH2] ({CH2CO}-[dPhe(3-CONH2)][NMe3Pal]N[Gly(cBu)][Aad](NH2)[NMeE][Trp(1-Me,7-Cl)]K([CO-Piperazinyl(4-CH2COOH)])[Trp(1-Me)]C-NH2; thioether N-10): the Kd was below 1 nM. As for `CN1C(=O)[C@H](CCC(=O)NC[C@H](O)[C@@H](O)[C@H](O)[C@H](O)CO)NC(=O)[C@H](C2CCC2)NC(=O)[C@H](CC(N)=O)NC(=O)[C@H](Cc2cccnc2)N(C)C(=O)[C@@H](Cc2cccc(C(N)=O)c2)NC(=O)CSC[C@@H](C(N)=O)NC(=O)[C@H](Cc2cn(C)c3ccccc23)NC(=O)[C@H](CCCCNC(N)=O)NC(=O)[C@H](Cc2cn(C)c3c(Cl)cccc23)NC(=O)[C@@H]1CCC(=O)O` [PDC_EphA2-00026607, df3CON-Me3Py-N-Cbg-Qglucamine-MeE-W1Me7Cl-Hcit-W1Me-C-NH2] ({CH2CO}-[dPhe(3-CONH2)][NMe3Pal]N[Gly(cBu)]E(NH(1-deoxy-D-glucityl))[NMeE][Trp(1-Me,7-Cl)][hCit][Trp(1-Me)]C-NH2; thioether N-10), the figure is below 1 nM; as for `CN1C(=O)[C@H](CCCC(N)=O)NC(=O)[C@H](C2CCC2)NC(=O)[C@H](CC(N)=O)NC(=O)[C@H](Cc2cccc(O)c2)N(C)C(=O)[C@@H](Cc2cccc(C(N)=O)c2)NC(=O)CSC[C@@H](C(N)=O)NC(=O)[C@H](Cc2cn(C)c3ccccc23)NC(=O)[C@H](CCCCNC(=O)N2CCN(CC(=O)O)CC2)NC(=O)[C@H](Cc2cn(C)c3c(Cl)cccc23)NC(=O)[C@@H]1CCC(=O)O` [PDC_EphA2-00026608, df3CON-MeF3H-N-Cbg-Hgn-MeE-W1Me7Cl-KCOpipzaa-W1Me-C-NH2] ({CH2CO}-[dPhe(3-CONH2)][NMemTyr]N[Gly(cBu)][Aad](NH2)[NMeE][Trp(1-Me,7-Cl)]K([CO-Piperazinyl(4-CH2COOH)])[Trp(1-Me)]C-NH2; thioether N-10), below 1 nM. As to `CN1C(=O)[C@H](CCCC(N)=O)NC(=O)[C@H](C2CCC2)NC(=O)[C@H](CC(N)=O)NC(=O)[C@H](Cc2cccnc2)N(C)C(=O)[C@@H](Cc2cccc(C(N)=O)c2)NC(=O)CSC(C)(C)[C@@H](C(N)=O)NC(=O)[C@H](Cc2cn(C)c3ccccc23)NC(=O)[C@H](CCCCNC(=O)N2CCN(CC(=O)O)CC2)NC(=O)[C@H](Cc2cn(C)c3c(Cl)cccc23)NC(=O)[C@@H]1CCC(=O)O` [PDC_EphA2-00026609, df3CON-Me3Py-N-Cbg-Hgn-MeE-W1Me7Cl-KCOpipzaa-W1Me-CdMe-NH2] ({CH2CO}-[dPhe(3-CONH2)][NMe3Pal]N[Gly(cBu)][Aad](NH2)[NMeE][Trp(1-Me,7-Cl)]K([CO-Piperazinyl(4-CH2COOH)])[Trp(1-Me)][Pen]-NH2; thioether N-10), the Kd fell in the range of 1 to 10 nM.

Consider `C[C@@H]1SCC(=O)N[C@H](Cc2cccc(C(N)=O)c2)C(=O)N(C)[C@@H](Cc2cccnc2)C(=O)N[C@@H](CC(N)=O)C(=O)N[C@@H](C2CCC2)C(=O)N[C@@H](CCCC(N)=O)C(=O)N(C)[C@@H](CCC(=O)O)C(=O)N[C@@H](Cc2cn(C)c3c(Cl)cccc23)C(=O)N[C@@H](CCCCNC(=O)N2CCN(CC(=O)O)CC2)C(=O)N[C@@H](Cc2cn(C)c3ccccc23)C(=O)N[C@@H]1C(N)=O` [PDC_EphA2-00026610, df3CON-Me3Py-N-Cbg-Hgn-MeE-W1Me7Cl-KCOpipzaa-W1Me-C3SMe-NH2], for which the Kd was 1 to 10 nM. Take `C[C@H]1SCC(=O)N[C@H](Cc2cccc(C(N)=O)c2)C(=O)N(C)[C@@H](Cc2cccnc2)C(=O)N[C@@H](CC(N)=O)C(=O)N[C@@H](C2CCC2)C(=O)N[C@@H](CCCC(N)=O)C(=O)N(C)[C@@H](CCC(=O)O)C(=O)N[C@@H](Cc2cn(C)c3c(Cl)cccc23)C(=O)N[C@@H](CCCCNC(=O)N2CCN(CC(=O)O)CC2)C(=O)N[C@@H](Cc2cn(C)c3ccccc23)C(=O)N[C@@H]1C(N)=O` [PDC_EphA2-00026611, df3CON-Me3Py-N-Cbg-Hgn-MeE-W1Me7Cl-KCOpipzaa-W1Me-C3RMe-NH2]: the Kd was below 1 nM.

(Values after patent publication US20260098061A1, “EPHA2-BINDING PENDING PEPTIDE AND COMPOSITION COMPRISING SAME” (PeptiDream Inc., priority 2022, published 2026).)
